Laboratory results as given in PMC7679387, “VZHE-039, a novel antisickling agent that prevents erythrocyte sickling under both hypoxic and anoxic conditions” (Scientific Reports, 2020).
“Also recorded” adds a separate entry of the source.

Experiments:
SS RBCs = experiment: pO2-dependent degree of sickling in Hemox Analyzer; type: cell-based, human; conditions: Hct 20%
Procedure: In a confirmatory study, a pO2 dependent degree of sickling of VZHE-039 at 1 and 2 mM doses, with Voxelotor as a control was performed using a Hemox analyzer. […] Oksenberg et al.reported similar observations with Voxelotor[28], where the compound lost its potent antisickling activity at low pO2 values.
The second study established pO2 dependent degree of sickling of VZHE-039, with Voxelotor as a control. Concurrently, blood samples, hematocrit 20%, were incubated without any drug (control) or with 1, or 2 mM VZHE-039 at 37 °C for 1 h. A second control sample was incubated with 2 mM Voxelotor. At conclusion, 100 uL aliquots of each suspension were mixed with 2.5 mL Hemox buffer (pH 7.4, supplemented with antifoam), and transferred into the sample chamber of the Hemox Analyzer. Compressed air was then flushed through the sample to ensure complete oxygenation (at 150 mmHg). Nitrogen gas was then introduced into the sample chamber, and 50 uL aliquots were obtained and fixed at defined pO2 values. At conclusion, all fixed samples were subjected to microscopic analysis for their degree of sickling, and results were plotted using Prism Graph Pad software. The experiments were conducted in three replicates on different days, and mean and standard deviation values are reported.

[1] = Partitioning into RBCs in whole blood; type: in vitro ADME; conditions: 100–300 µM; normal whole human blood, 37 °C
Procedure: Toxicity concerns remain an important issue in the use of aromatic aldehydes in treating a chronic disease, such as SCD, especially as it involves modification of a large amount of in vivo present Hb. […] We evaluated key metrics such as in vitro RBC partitioning and ADME/safety profiles, in order to glean important safety insights. […] We also assessed VZHE-039 at 10 μM for its bi-directional cell permeability using Caco-2 cell monolayers[53],[54].
We incubated test compounds at expected blood concentrations (100–300 uM) with whole blood (mouse or human), after which we analyzed compound concentrations separately in plasma, whole blood and RBCs. Previously, we have established and validated reversed-phase HPLC and LC/MS methods for accurately measuring the compounds in blood. Validated reversed-phase HPLC was conducted on a Hitachi system, using a Waters C18 column, and a gradient of 0.1% Formic Acid in water (mobile phase A), and 0.1% Formic Acid in Acetonitrile (mobile phase B) at a flow rate of 1 mL/min in 12 min. UHPLC and LC/MS analyses were conducted at the Bioanalytical Core Facility at The Children’s Hospital of Philadelphia. […] 5 uL of each sample was injected at analyzed using a gradient of: (A) 5 mM ammonium acetate in deionized water (pH adjusted to 4.8 by formic acid); and (B) 5 mM ammonium acetate in (90:10) acetonitrile: water, at a flow rate of 0.5 mL/minute. […]

SS cells = experiment: Antisickling study with SS cells under hypoxia (2.5% O2); type: cell-based, human; conditions: 20% hematocrit, […] O2, 37 °C
Procedure: For our previously studied compounds (e.g., INN-312, TD-7, SAJ-310, INN-298) that incorporate methoxyPy substitution to vanillin analogs, we observed a significant increase in functional and biological activity as a result of increased protein interactions[31],[33],[35],[36]. We therefore expected similar effects for VZHE-039, which we tested by following VZHE-039 activity (measured by Hb adduct formation, P50-shift and RBC sickling inhibition) using SS blood. Briefly, we incubated 0.5, 1, and 2 mM concentrations of VZHE-039 with whole blood suspensions from subjects with homozygous SCD (Hct of 20%) under hypoxic conditions (2.5% O2/97.5% N2) at 37 °C for 2 h for expected peak adduct. Aliquot blood samples were drawn into a fixative (2% glutaraldehyde solution), and sickling was assessed by microscopy[31],[33],[35],[36]. Aliquot samples were also subjected to cation-exchange HPLC analyses to assess the degree of Hb modification to the high-affinity adduct form (Hb adduct formation), as well as standard O2 equilibrium curves (OEC) to assess P50-shifts using hemox analyzer[31],[33],[35],[36]. […] The improved potency of Voxelotor has been attributed to reduced binding stoichiometry, i.e. while Voxelotor binds Hb at a 1:1 ratio, VZHE-039 binds Hb at a 2:1 ratio. […] This observation, as will be discussed later is likely due to a meaningful contribution from the novel O2-independent antisickling activity as result of the strong contact with the αF-helix.
The effect of VZHE-039 on RBC sickling, Hb modification, and Hb oxygen equilibrium was studied utilizing samples from consented individuals with homozygous SCD following previous procedure. Briefly, blood suspended in Hemox buffer and supplemented with glucose and bovine serum albumin, to a final hematocrit of 20% were incubated under air in the absence or presence of 0.5 mM, 1 mM and 2 mM VZHE-039 at 37 °C for 1 h. This was followed by incubating the suspensions under hypoxic conditions (2.5% O2/97.5% N2) at 37 °C for 2 h. Aliquot samples were obtained and fixed with 2% glutaraldehyde solution without exposure to air, and then subjected to microscopic morphological analysis of bright field images (at × 40 magnification) of single layer cells on an Olympus BX40 microscope fitted with an Infinity 2 camera (Olympus), and the coupled Image Capture software. Leftover samples were washed in phosphate-buffer saline, and hemolyzed in hypotonic lysis buffer for subsequent Hb-modification and oxygen equilibrium analyses.

## O=Cc1c(O)cccc1OCc1cccc(CO)n1 [VZHE-039, 2-((6-(Hydroxymethyl)pyridin-2-yl)methoxy)-6-hydroxybenzaldehyde]
SS RBCs; 1 mM
  pO2-dependent sickling inhibition (in words): delay in initiation of sickling, as well as reduction in the total number of sickled cells; also recorded: significant delay in initiation of sickling
SS RBCs; 2 mM
  pO2-dependent sickling inhibition (in words): complete inhibition of sickling at the lowest recorded pO2; also recorded: complete sickling inhibition at all pO2
[1]
  Partitioned into the RBC compartment: approximately 85%
SS cells; 0.5 mM
  Sickling Inhibition: 34.5 ± 2.4%
SS cells; 1 mM
  Sickling Inhibition: 63.7 ± 6.9%
SS cells; 2 mM
  Sickling Inhibition: 92.8 ± 5.5%
SS cells; Homo sapiens, 0.5 mM, read-out: Sickling Inhibition
  inhibition at 500 µM: 35%
SS cells; Homo sapiens, 1 mM, read-out: Sickling Inhibition
  inhibition at 1000 µM: 63%
SS cells; Homo sapiens, 2 mM, read-out: Sickling Inhibition
  inhibition at 2000 µM: 93%
